# According to US20150299250A1, “MACROCYCLIC COMPOUNDS AND USES THEREOF” (ADELAIDE RESEARCH & INNOVATION PTY LTD, priority 2012, published 2015):
# Assays:
# [1] = target: T1, ovine calpain 1 (o-CAPN1) (Ovis aries, UniProt B2ZA85); assay: Fluorometric calpain assay (BODIPY-Fl casein), ovine calpain 1; format: biochemical
# T1 sequence (B2ZA85 1-716): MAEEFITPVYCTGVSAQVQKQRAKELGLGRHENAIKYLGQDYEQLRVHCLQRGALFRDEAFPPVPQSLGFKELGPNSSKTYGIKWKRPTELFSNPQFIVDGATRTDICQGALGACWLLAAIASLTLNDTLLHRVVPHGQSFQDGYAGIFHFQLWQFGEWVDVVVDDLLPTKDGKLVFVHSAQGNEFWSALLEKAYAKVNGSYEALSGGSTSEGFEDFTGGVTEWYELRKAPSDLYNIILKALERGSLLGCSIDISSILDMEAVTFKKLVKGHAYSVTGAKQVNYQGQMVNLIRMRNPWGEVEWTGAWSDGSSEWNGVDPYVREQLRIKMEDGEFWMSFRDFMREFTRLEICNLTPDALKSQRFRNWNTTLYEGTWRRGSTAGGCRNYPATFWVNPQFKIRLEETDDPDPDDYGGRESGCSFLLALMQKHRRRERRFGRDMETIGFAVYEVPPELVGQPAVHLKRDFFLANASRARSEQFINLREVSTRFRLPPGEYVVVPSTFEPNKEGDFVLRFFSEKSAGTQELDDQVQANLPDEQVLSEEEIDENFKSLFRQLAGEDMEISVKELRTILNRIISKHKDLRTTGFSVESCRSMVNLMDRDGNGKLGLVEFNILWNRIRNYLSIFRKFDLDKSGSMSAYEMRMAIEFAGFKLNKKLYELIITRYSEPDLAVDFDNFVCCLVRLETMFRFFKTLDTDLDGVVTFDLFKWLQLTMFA
# T1 sequence (A0ACI6PYI8 1-265 partner): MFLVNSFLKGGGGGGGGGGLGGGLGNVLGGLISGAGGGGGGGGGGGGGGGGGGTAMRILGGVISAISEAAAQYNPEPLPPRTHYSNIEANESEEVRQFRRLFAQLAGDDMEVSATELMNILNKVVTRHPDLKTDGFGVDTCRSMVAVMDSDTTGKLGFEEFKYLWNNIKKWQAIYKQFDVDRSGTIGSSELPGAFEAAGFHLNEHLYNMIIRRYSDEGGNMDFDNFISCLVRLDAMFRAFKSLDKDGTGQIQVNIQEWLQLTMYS
# Description: Fluorometric assays (excitation: 485 nm, emission: 520 nm) with ovine calpains 1 and 2 were done with a (BMG Labtech) Fluostar Optima plate reader at 37.0±0.2° C. in 96-well black (Greiner Bio-one) microassay plates. Calpains 1 and 2, partially purified from sheep lung by hydrophobic interaction and ion-exchange chromatography, were diluted in 20 mM MOPS, pH 7.5, containing 2 mM EGTA, 2 mM EDTA and 0.035% v/v 2-mercaptoethanol to give a linear response over the course of the assay. The substrate BODIPY-F1 casein was prepared as reported. {1} A 0.0005% solution of the substrate in 10 mM MOPS, pH 7.5, 10 mM CaCl2, 0.1 mM NaN3, 0.1% v/v 2-mercaptoethanol was prepared freshly before each experiment. […]
# Inhibition studies were performed in the presence of seven different inhibitor concentrations and 1% v/v DMSO in a volume of 200 μL: 50 μl of inhibitor solution was added to a microassay well followed by 50 μl of calpain-containing solution. The reaction was initiated by adding 100 μl of BODIPY-F1 casein solution to each well and progress curves were monitored every 30 s over 570 s. Uninhibited enzyme activity was determined by adding 4% v/v DMSO in water instead of inhibitor solution. […]
# The average value of rates obtained in two separate experiments, each in triplicate, was plotted versus the inhibitor concentration and IC50 values were calculated with the following equation: […]
# [2] = target: T2, 20S proteasome chymotrypsin-like (CT-L) activity (Oryctolagus cuniculus, UniProt G1T4Q9); assay: In vitro proteasome activity assay, CT-L (Suc-LLVY-AMC); format: biochemical, rabbit; conditions: purified 20S proteasome
# T2 sequence (G1T4Q9 1-263): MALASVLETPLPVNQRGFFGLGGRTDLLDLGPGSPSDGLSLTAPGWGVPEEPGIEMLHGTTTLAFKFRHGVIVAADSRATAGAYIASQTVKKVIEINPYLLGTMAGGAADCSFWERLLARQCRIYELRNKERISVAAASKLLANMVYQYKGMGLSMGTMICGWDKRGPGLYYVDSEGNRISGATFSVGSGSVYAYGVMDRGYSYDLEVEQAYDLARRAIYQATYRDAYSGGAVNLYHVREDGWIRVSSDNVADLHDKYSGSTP
# Description: (§1) The assays were performed in vitro using purified 20S proteasome/inhibitor mixtures, with the activity of each subunit of the proteasome assessed upon incubation with its respective target peptide.
# (§2) Purified rabbit 20S proteasome and fluorogenic CT-L substrate (Suc-LLVY-AMC) were purchased from Boston Biochem (Cambridge, Mass., USA). The T-L and CP-L fluorogenic substrates (Ac-RLR-AMC and Z-nLPnLD-AMC) were purchased from Enzo Life Sciences (Farmingdale, N.Y., USA). The 20S proteasome was diluted to 0.2 μg/μL in 20S proteasome buffer (50 mM HEPES pH 7.6, 150 mM NaCl and 1 mM DDT) and stored at −80° C. Purified 20S proteasome (8 ng) was pre-incubated with the indicated concentrations of inhibitors for 15 minutes and subsequently added to the AMC-labeled substrate peptide (50 μM) in assay buffer (25 mM HEPES, pH 7.5, 0.5 mM EDTA, 0.05% NP-40, and 0.001% SDS (w/v)) at 37° C. for 2 hours.
# [3] = target: T3, 20S proteasome T-L activity (Oryctolagus cuniculus, UniProt G1SWK8); assay: In vitro proteasome activity assay, T-L (Ac-RLR-AMC); format: biochemical, rabbit; conditions: purified 20S proteasome; highest concentration tested 25,000 nM
# T3 construct: purchased Boston Biochem
# T3 sequence (G1SWK8 1-271): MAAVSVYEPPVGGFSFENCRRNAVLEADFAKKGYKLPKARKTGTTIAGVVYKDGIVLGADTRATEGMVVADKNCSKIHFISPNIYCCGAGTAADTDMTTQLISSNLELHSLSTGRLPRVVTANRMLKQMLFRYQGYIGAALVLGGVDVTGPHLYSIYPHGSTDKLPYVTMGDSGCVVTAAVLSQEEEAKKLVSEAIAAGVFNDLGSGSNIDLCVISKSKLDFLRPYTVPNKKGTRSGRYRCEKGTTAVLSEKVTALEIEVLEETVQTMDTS
# Description: as §1, §2
# [4] = target: T4, 20S proteasome CP-L activity (Oryctolagus cuniculus, UniProt A0A5F9DQW2); assay: In vitro proteasome activity assay, CP-L (Z-nLPnLD-AMC); format: biochemical, rabbit; conditions: purified 20S proteasome; highest concentration tested 25,000 nM
# T4 construct: Purified rabbit 20S proteasome
# Description: We initially determined the ability of the novel tripeptide MG132 analogues 1-6 and the macrocycles 3a and 4a to inhibit the three separate protease activities of the 20S proteasome (CT-L, -T-L and CP-L). The assays were performed in vitro using purified 20S proteasome/inhibitor mixtures, with the activity of each subunit of the proteasome assessed upon incubation with its respective target peptide. […] In addition, there is no apparent clear-cut preference for the length of tether (compare compounds 1 to 4), while the introduction of an aryl group at P3 (as in 6) is well tolerated.
# as §2, with “hours. Fluorescent substrate cleavage by the 20S proteasome was linear during this incubation timeframe (Supplementary Figure S4. Hydrolysed 7-amino-4-methylcoumarin (AMC) was subsequently detected with the FLUOstar OPTIMA microplatefluorometer at excitation/emission of 390/460 nm. The activity was estimated in relative fluorescence units and half of the maximal inhibitory activity of the proteasome is represented by IC50 values. A minimum of three biological replicates were performed for each data point.” for “hours.”
# [5] = system: WE-68 Ewing's sarcoma cells; assay: Cell viability assay (7AAD, 48 hours), WE-68; format: cell-based; conditions: 48 hours exposure; read-out: Cancer cell lines IC50 (μM) WE-68
# Description: (§3) Cell viability assays were performed as previously described. Briefly, cells were seeded in 96 well microtiterplates at a density of 3×10^4 cells per well in the presence of the indicated chemical. Cells were harvested 48 hours post-treatment, centrifuged at 1,300×g, washed in phosphate-buffered saline (PBS) and stained with 7AAD solution (2 μg/mL) (7-amino-actinomycin-D, Invitrogen, Carlsbad, Calif.) for 10 mins at room temperature. Viable cells were determined with the use of a FACS Calibur flow cytometer (Becton Dickinson Immunocytometry Systems), and analyzed with the use of FLOWJO (Tree Star, Inc) and GraphPad Prism (GraphPad Software Inc).
# (§4) WE-68 and VH-64 Ewing's sarcoma cells were kindly supplied by F. van Valen (Department of Orthopaedic Surgery, Westfalische-Wilhelms-University, Germany).TC-252 and STA-ET-1 Ewing's sarcoma cells were kindly provided by G. Hamilton (Department of Surgery, University of Vienna, Austria) or P. Ambros (Children's Cancer Research Institute, St Anna Children's Hospital, Vienna, Austria). Primary human embryonic fibroblasts or primary human osteoblasts were collected from the Women's and Children's Hospital (North Adelaide, South Australia, Australia) or Royal Adelaide Hospital with patient consent. Mouse Embryonic Fibroblasts (MEFs) and its p53-null derivative were kindly supplied by Guillermina Lozano (Department of Genetics, Anderson Cancer Centre, University of Texas, Houston, Tex., USA). WE-68 cell lines were grown in RPMI-1640 media, whilst human embryonic fibroblasts and MEFs were grown in Dulbecco's Modified Eagle's Medium (DMEM). Media was supplemented with 10% FCS, 1% PSG and 10 mM HEPES. All cells were maintained at 37° C. in a humidified atmosphere of 5% CO2.
# [6] = system: VH-64 Ewing's sarcoma cells; assay: Cell viability assay (7AAD, 48 hours), VH-64; format: cell-based; conditions: 48 hours exposure; read-out: Cancer cell lines IC50 (μM) VH-64
# Description: as §3, §4
# [7] = system: STA-ET-1 Ewing's sarcoma cells; assay: Cell viability assay (7AAD, 48 hours), STA-ET-1; format: cell-based; conditions: 48 hours exposure; read-out: Cancer cell lines IC50 (μM) STA-ET-1
# Description: as §3, §4
# [8] = system: TC-252 Ewing's sarcoma cells; assay: Cell viability assay (7AAD, 48 hours), TC-252; format: cell-based; conditions: 48 hours exposure; read-out: Cancer cell lines IC50 (μM) TC-252
# Description: as §3, §4
# [9] = system: primary human embryonic fibroblasts; assay: Cell viability assay (7AAD, 48 hours), normal fibroblasts; format: cell-based; conditions: Fibroblast, 48 hours exposure, read-out: Normal cell lines IC50 (μM) Fibroblasts
# Description: as §3, §4
# [10] = system: primary human osteoblasts; assay: Cell viability assay (7AAD, 48 hours), normal osteoblasts; format: cell-based; conditions: Osteoblast, 48 hours exposure, read-out: Normal cell lines IC50 (μM) Osteoblasts
# Description: as §3, §4
# [11] = system: panel of sarcoma cell lines (WE-68, VH-64, STA-ET-1, TC-252); assay: Cell viability assay, panel of four sarcoma cell lines (average); format: cell-based
# Description: as §3, §4
# [12] = system: normal cell lines (fibroblasts, osteoblasts); assay: Cell viability assay, normal cell lines (average); format: cell-based; conditions: Homo sapiens; average of fibroblasts and osteoblasts
# Description: as §3, §4
# T4 sequence (A0A5F9DQW2 1-212): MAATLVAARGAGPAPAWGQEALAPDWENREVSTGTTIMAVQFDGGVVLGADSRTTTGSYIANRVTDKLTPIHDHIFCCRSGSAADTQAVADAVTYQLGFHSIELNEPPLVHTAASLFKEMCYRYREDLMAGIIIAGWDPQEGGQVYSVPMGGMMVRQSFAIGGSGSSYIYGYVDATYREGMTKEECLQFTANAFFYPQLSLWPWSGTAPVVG
SMILES,isoform selectivity o-CAPN2 vs. o-CAPN1 [1],IC50 [2],IC50 [3],IC50 [4],IC50 [5],IC50 [6],IC50 [7],IC50 [8],IC50 [9],IC50 [10],"IC50 ([11]; average of four sarcoma cell lines, read-out: Average IC50 for cancer cell lines)",Therapeutic window ([11]; fold change in potency (IC50) against cancer cell line versus normal cell line),IC50 [12],melting point
"CC(C)C[C@@H](C=O)NC(=O)[C@@H]1CCCCCCCCCCCC(=O)c2ccc([nH]2)C(=O)N1 [Compound 1c, (S)—N—((S)-4-methyl-1-oxopentan-2-yl)-2,16-dioxo-3,20-diazabicyclo[15.2.1]icosa-1(19),17-diene-4-carboxamide]",no isoform selectivity,,,,,,,,,,,,,
CC(C)CC(C=O)NC(=O)C1CCCCOc2ccc(cc2)CCC(=O)c2ccc([nH]2)C(=O)N1 (stereo not drawn) [Compound 2c],no isoform selectivity,,,,,,,,,,,,,
C#CCOc1ccc(C[C@@H](C=O)NC(=O)[C@H](CC(C)C)NC(=O)[C@H](CN=[N+]=[N-])NC(=O)OCc2ccccc2)cc1 [Compound 1],,34 nM,> 25000 nM,> 25000 nM,4.5 µM,5.8 µM,6.5 µM,5 µM,12.2 µM,23.7 µM,5.4 µM,×3.3,18 µM,71 to 73 °C
